Laboratory results taken from patent publication US10499642B2, “Isoxazoline-substituted benzamides and analogues as insecticides” (SYNGENTA PARTICIPATIONS AG, priority 2015, dated 2019).

Assays:
Format in all cases: in vivo
Thrips tabaci = Thrips tabaci (onion thrips) sunflower leaf disc test; conditions: foliar, 144 h
Method: Thrips tabaci (Onion Thrips):
Sunflower leaf discs were placed on agar in 24-well microtiter plates and sprayed with aqueous test solutions prepared from 10′000 ppm DMSO stock solutions. After drying the leaf discs were infested with a thrips population of mixed ages. The samples were assessed for mortality 6 days after infestation.

Plutella xylostella = Plutella xylostella (diamond back moth) artificial diet test; conditions: 120 h, read-out: effect in at least one of the two categories (mortality or growth inhibition)
Method: Plutella xylostella (Diamond Back Moth):
24-well microtiter plates with artificial diet were treated with aqueous test solutions prepared from 10′000 ppm DMSO stock solutions by pipetting. After drying, the plates were infested with L2 larvae (10 to 15 per well). The samples were assessed for mortality and growth inhibition in comparison to untreated samples 5 days after infestation. The following compounds gave an effect of at least 80% in at least one of the two categories (mortality or growth inhibition) at an application rate of 200 ppm: […]

Myzus persicae = Myzus persicae (green peach aphid) sunflower leaf disc test; conditions: foliar, 144 h
Method: Myzus persicae (Green Peach Aphid):
Sunflower leaf discs were placed on agar in a 24-well microtiter plate and sprayed with test solutions at an application rate of 200 ppm. After drying, the leaf discs were infested with an aphid population of mixed ages. After an incubation period of 6 days after treatment, samples were checked for mortality. The following compounds gave at least 80% mortality of Myzus persicae: […]

Tetranychus urticae = Tetranychus urticae (two-spotted spider mite) bean leaf disc test; conditions: foliar, 192 h
Method: Tetranychus urticae (Two-Spotted Spider Mite):
Bean leaf discs on agar in 24-well microtiter plates were sprayed with aqueous test solutions prepared from 10′000 ppm DMSO stock solutions. After drying the leaf discs were infested with a mite population of mixed ages. The samples were assessed for mortality on mixed population (mobile stages) 8 days after infestation.

Diabrotica Balteata = assay: Diabrotica balteata (corn root worm) maize sprout test; conditions: 96 h, read-out: effect in at least one of the two categories (mortality or growth inhibition)
Method: Diabrotica Balteata, (Corn Root Worm)
Maize sprouts, placed on an agar layer in 24-well microtiter plates were treated with aqueous test solutions prepared from 10′000 ppm DMSO stock solutions by spraying. After drying, the plates were infested with L2 larvae (6 to 10 per well). The samples were assessed for mortality and growth inhibition in comparison to untreated samples 4 days after infestation. The following compounds gave an effect of at least 80% in at least one of the two categories (mortality or growth inhibition) at an application rate of 200 ppm: […]

Spodoptera littoralis = Spodoptera littoralis (Egyptian cotton leaf worm) cotton leaf disc test; conditions: foliar, 72 h, read-out: control (at least one of mortality, anti-feedant effect, and growth inhibition)
Method: Spodoptera littoralis (Egyptian Cotton Leaf Worm)
Cotton leaf discs were placed on agar in 24-well microtiter plates and sprayed with aqueous test solutions prepared from 10′000 ppm DMSO stock solutions. After drying the leaf discs were infested with five L1 larvae. The samples were assessed for mortality, anti-feedant effect, and growth inhibition in comparison to untreated samples 3 days after infestation. Control of Spodoptera littoralis by a test sample is when at least one of mortality, anti-feedant effect, and growth inhibition is higher than the untreated sample.

COC1=NOC(NC(=O)c2ccc(C3=NO[C@@](c4cc(Cl)cc(Cl)c4)(C(F)(F)F)C3)cc2Cl)C1 (stereo partly drawn) [Compound A062]
≥ 80%: mortality at 200 ppm (Thrips tabaci) | percent effect (mortality or growth inhibition) at 200 ppm (Plutella xylostella) | mortality at 200 ppm (Myzus persicae) | mortality at 200 ppm (Tetranychus urticae) | percent effect (mortality or growth inhibition) at 200 ppm (Diabrotica Balteata) | percent control (mortality, anti-feedant effect or growth inhibition) at 200 ppm (Spodoptera littoralis)

Cc1cc(C2=NO[C@@](c3cc(Cl)c(F)c(Cl)c3)(C(F)(F)F)C2)ccc1C(=O)NC1CC(Br)=NO1 (stereo partly drawn) [Compound A001, N-(3-bromo-4,5-dihydroisoxazol-5-yl)-4-[(5S)-5-(3,5-dichloro-4-fluoro-phenyl)-5-(trifluoromethyl)-4H-isoxazol-3-yl]-2-methyl-benzamide]
≥ 80%: mortality at 200 ppm (Thrips tabaci) | percent effect (mortality or growth inhibition) at 200 ppm (Plutella xylostella) | mortality at 200 ppm (Myzus persicae) | mortality at 200 ppm (Tetranychus urticae) | percent effect (mortality or growth inhibition) at 200 ppm (Diabrotica Balteata) | percent control (mortality, anti-feedant effect or growth inhibition) at 200 ppm (Spodoptera littoralis)

CCC1=NOC(NC(=O)c2ccc(C3=NO[C@@](c4cc(Cl)cc(Cl)c4)(C(F)(F)F)C3)cc2C)C1 (stereo partly drawn) [Compound A137]
≥ 80%: mortality at 200 ppm (Thrips tabaci) | percent effect (mortality or growth inhibition) at 200 ppm (Plutella xylostella) | mortality at 200 ppm (Myzus persicae) | mortality at 200 ppm (Tetranychus urticae) | percent effect (mortality or growth inhibition) at 200 ppm (Diabrotica Balteata) | percent control (mortality, anti-feedant effect or growth inhibition) at 200 ppm (Spodoptera littoralis)

COC1=NOC(N(C=O)C(=O)c2ccc(C3=NO[C@@](c4cc(Cl)cc(Cl)c4)(C(F)(F)F)C3)cc2C)C1 (stereo partly drawn) [Compound A134]
≥ 80%: mortality at 200 ppm (Thrips tabaci) | percent effect (mortality or growth inhibition) at 200 ppm (Plutella xylostella) | mortality at 200 ppm (Myzus persicae) | mortality at 200 ppm (Tetranychus urticae) | percent effect (mortality or growth inhibition) at 200 ppm (Diabrotica Balteata) | percent control (mortality, anti-feedant effect or growth inhibition) at 200 ppm (Spodoptera littoralis)

CCOC1=NOC(NC(=O)c2ccc(C3=NO[C@@](c4cc(Cl)c(F)c(Cl)c4)(C(F)(F)F)C3)cc2C)C1 (stereo partly drawn) [Compound A046]
≥ 80%: mortality at 200 ppm (Thrips tabaci) | percent effect (mortality or growth inhibition) at 200 ppm (Plutella xylostella) | mortality at 200 ppm (Myzus persicae) | mortality at 200 ppm (Tetranychus urticae) | percent effect (mortality or growth inhibition) at 200 ppm (Diabrotica Balteata) | percent control (mortality, anti-feedant effect or growth inhibition) at 200 ppm (Spodoptera littoralis)

O=C(NC1CC(Cl)=NO1)c1ccc(C2=NO[C@@](c3cc(Cl)c(Cl)c(Cl)c3)(C(F)(F)F)C2)cc1Cl (stereo partly drawn) [Compound A018, 2-chloro-N-(3-chloro-4,5-dihydroisoxazol-5-yl)-4-[(5S)-5-(3,4,5-trichlorophenyl)-5-(trifluoromethyl)-4H-isoxazol-3-yl]benzamide]
≥ 80%: mortality at 200 ppm (Thrips tabaci) | percent effect (mortality or growth inhibition) at 200 ppm (Plutella xylostella) | mortality at 200 ppm (Myzus persicae) | mortality at 200 ppm (Tetranychus urticae) | percent effect (mortality or growth inhibition) at 200 ppm (Diabrotica Balteata) | percent control (mortality, anti-feedant effect or growth inhibition) at 200 ppm (Spodoptera littoralis)

Cc1cc(C2=NO[C@@](c3cc(Cl)c(Cl)c(Cl)c3)(C(F)(F)F)C2)ccc1C(=O)NC1CC(Br)=NO1 (stereo partly drawn) [Compound A125, N-(3-bromo-4,5-dihydroisoxazol-5-yl)-2-methyl-4-[(5S)-5-(3,4,5-trichlorophenyl)-5-(trifluoromethyl)-4H-isoxazol-3-yl]benzamide]
≥ 80%: mortality at 200 ppm (Thrips tabaci) | percent effect (mortality or growth inhibition) at 200 ppm (Plutella xylostella) | mortality at 200 ppm (Myzus persicae) | mortality at 200 ppm (Tetranychus urticae) | percent effect (mortality or growth inhibition) at 200 ppm (Diabrotica Balteata) | percent control (mortality, anti-feedant effect or growth inhibition) at 200 ppm (Spodoptera littoralis)

CNC1=NOC(NC(=O)c2ccc(C3=NO[C@@](c4cc(Cl)c(F)c(Cl)c4)(C(F)(F)F)C3)cc2C)C1 (stereo partly drawn) [Compound A120]
≥ 80%: mortality at 200 ppm (Thrips tabaci) | percent effect (mortality or growth inhibition) at 200 ppm (Plutella xylostella) | mortality at 200 ppm (Myzus persicae) | mortality at 200 ppm (Tetranychus urticae) | percent effect (mortality or growth inhibition) at 200 ppm (Diabrotica Balteata) | percent control (mortality, anti-feedant effect or growth inhibition) at 200 ppm (Spodoptera littoralis)

CO/N=C(\C)COC1=NOC(NC(=O)c2ccc(C3=NO[C@@](c4cc(Cl)c(Cl)c(Cl)c4)(C(F)(F)F)C3)cc2C)C1 (stereo partly drawn) [Compound A116, N-[3-[(2E)-2-methoxyiminopropoxy]-4,5-dihydroisoxazol-5-yl]-2-methyl-4-[(5S)-5-(3,4,5-trichlorophenyl)-5-(trifluoromethyl)-4H-isoxazol-3-yl]benzamide]
≥ 80%: mortality at 200 ppm (Thrips tabaci) | percent effect (mortality or growth inhibition) at 200 ppm (Plutella xylostella) | mortality at 200 ppm (Myzus persicae) | mortality at 200 ppm (Tetranychus urticae) | percent effect (mortality or growth inhibition) at 200 ppm (Diabrotica Balteata) | percent control (mortality, anti-feedant effect or growth inhibition) at 200 ppm (Spodoptera littoralis)

COC1=NOC(NC(=O)c2ccc(C3=NOC(c4cc(Cl)cc(Cl)c4)(C(F)(F)F)C3)cc2C)C1 (stereo not drawn) [Compound A126]
≥ 80%: mortality at 200 ppm (Thrips tabaci) | percent effect (mortality or growth inhibition) at 200 ppm (Plutella xylostella) | mortality at 200 ppm (Myzus persicae) | mortality at 200 ppm (Tetranychus urticae) | percent effect (mortality or growth inhibition) at 200 ppm (Diabrotica Balteata) | percent control (mortality, anti-feedant effect or growth inhibition) at 200 ppm (Spodoptera littoralis)

Cc1cc(C2=NO[C@@](c3cc(Cl)c(F)c(Cl)c3)(C(F)(F)F)C2)ccc1C(=O)NC1CC(COC=O)=NO1 (stereo partly drawn) [Compound A089]
≥ 80%: mortality at 200 ppm (Thrips tabaci) | percent effect (mortality or growth inhibition) at 200 ppm (Plutella xylostella) | mortality at 200 ppm (Myzus persicae) | mortality at 200 ppm (Tetranychus urticae) | percent effect (mortality or growth inhibition) at 200 ppm (Diabrotica Balteata) | percent control (mortality, anti-feedant effect or growth inhibition) at 200 ppm (Spodoptera littoralis)

CC1=NOC(N(C=O)C(=O)c2ccc(C3=NO[C@@](c4cc(Cl)c(Cl)c(Cl)c4)(C(F)(F)F)C3)cc2C)C1 (stereo partly drawn) [Compound A023, N-formyl-2-methyl-N-(3-methyl-4,5-dihydroisoxazol-5-yl)-4-[(5S)-5-(3,4,5-trichlorophenyl)-5-(trifluoromethyl)-4H-isoxazol-3-yl]benzamide]
≥ 80%: mortality at 200 ppm (Thrips tabaci) | percent effect (mortality or growth inhibition) at 200 ppm (Plutella xylostella) | mortality at 200 ppm (Myzus persicae) | mortality at 200 ppm (Tetranychus urticae) | percent effect (mortality or growth inhibition) at 200 ppm (Diabrotica Balteata) | percent control (mortality, anti-feedant effect or growth inhibition) at 200 ppm (Spodoptera littoralis)

Cc1cc(C2=NO[C@@](c3cc(Cl)c(F)c(Cl)c3)(C(F)(F)F)C2)ccc1C(=O)NC1CC(OC2COC2)=NO1 (stereo partly drawn) [Compound A082]
≥ 80%: mortality at 200 ppm (Thrips tabaci) | percent effect (mortality or growth inhibition) at 200 ppm (Plutella xylostella) | mortality at 200 ppm (Myzus persicae) | mortality at 200 ppm (Tetranychus urticae) | percent effect (mortality or growth inhibition) at 200 ppm (Diabrotica Balteata) | percent control (mortality, anti-feedant effect or growth inhibition) at 200 ppm (Spodoptera littoralis)

Cc1cc(C2=NO[C@@](c3cc(Cl)c(F)c(Cl)c3)(C(F)(F)F)C2)ccc1C(=O)NC1CC(OC2CC2)=NO1 (stereo partly drawn) [Compound A078]
≥ 80%: mortality at 200 ppm (Thrips tabaci) | percent effect (mortality or growth inhibition) at 200 ppm (Plutella xylostella) | mortality at 200 ppm (Myzus persicae) | mortality at 200 ppm (Tetranychus urticae) | percent effect (mortality or growth inhibition) at 200 ppm (Diabrotica Balteata) | percent control (mortality, anti-feedant effect or growth inhibition) at 200 ppm (Spodoptera littoralis)

Cc1cc(C2=NO[C@@](c3cc(Cl)cc(Cl)c3)(C(F)(F)F)C2)ccc1C(=O)NC1CC(OCC(F)(F)F)=NO1 (stereo partly drawn) [Compound A130, 4-[(5S)-5-(3,5-dichlorophenyl)-5-(trifluoromethyl)-4H-isoxazol-3-yl]-2-methyl-N-[3-(2,2,2-trifluoroethoxy)-4,5-dihydroisoxazol-5-yl]benzamide]
≥ 80%: mortality at 200 ppm (Thrips tabaci) | percent effect (mortality or growth inhibition) at 200 ppm (Plutella xylostella) | mortality at 200 ppm (Myzus persicae) | mortality at 200 ppm (Tetranychus urticae) | percent effect (mortality or growth inhibition) at 200 ppm (Diabrotica Balteata) | percent control (mortality, anti-feedant effect or growth inhibition) at 200 ppm (Spodoptera littoralis)
